Assay results reported in patent publication US20220040158A1, “AZD0328 DOSAGE REGIME FOR TREATING COGNITIVE IMPAIRMENT” (ASTRAZENECA AB, priority 2018, published 2022).
Like-named read-outs stand apart in the source and are kept apart here.

What was measured:
[1] = single compartment oral dosing PK model for AQW051; design: species or system human; details: model parameter estimate
From the text: (§1) In more detail, a single compartment oral dosing model with first order absorption as shown in equation (1) for a single dose at time t=0. This population-level model describes the concentration time dynamics of the study cohort given dose D of the drug. Here t is time, C(t) is drug concentration over time, Cmax is maximum achieved concentration at a particular dose, F is bioavailability, D is dose, Vd is volume of distribution, kα is the absorption time constant, and ke is the elimination time constant.
(§2) From the clinical study documentation, for each dose cohort t1/2, tmax, and Cmax could be established. For example, assuming dose-proportionality, half-life t1/2 was estimated for both drugs as the mean over of t1/2 over the different single-dose cohorts, as described in the study publications. We could then determine a working value for the elimination time constant ke in equation (2): […]
(§3) From equation (1), the time of maximum concentration tmax is then available from (3):
(§4) With dose-proportionality, tmax is independent of dose and is again obtained from the mean over the different single-dose cohorts. The absorption time constant kα is established by identifying the kα which results in a zero error e=0:
(§5) This is accomplished by graphing e(kα) over a dense grid in kα, identifying a region around the zero-crossing in which e(.) is monotonic in k0, and then using the interpolation function to estimate the kα with e(kα)=0. With the assumption of dose proportionality, we estimated the mean of Cmax/D over the single-dose cohorts and defined the constant K
(§6) Then from equation (1) and the definition of Cmax,
(§7) For multiple doses at times τi, we then assume linearity and hav
(§8) All equations were implemented directly in R version 3.2.1 (2015 Jun. 18, see https://cran.r-project.org/).
(§9) Dose and dosing regime selection for AZD0328 is targeted to achieve similar levels of α7 nAChR agonism to those reported to deliver clinical improvement in MCI with AQW051 (Trenkwalder et al., ibid).

[2] = target: T1, α7 nAChR (Homo sapiens, UniProt P36544); details: from the literature (Feuerbach et al.); read-out: EC50 as α7 nAChR agonist; cited from earlier work
T1 sequence (P36544 23-502): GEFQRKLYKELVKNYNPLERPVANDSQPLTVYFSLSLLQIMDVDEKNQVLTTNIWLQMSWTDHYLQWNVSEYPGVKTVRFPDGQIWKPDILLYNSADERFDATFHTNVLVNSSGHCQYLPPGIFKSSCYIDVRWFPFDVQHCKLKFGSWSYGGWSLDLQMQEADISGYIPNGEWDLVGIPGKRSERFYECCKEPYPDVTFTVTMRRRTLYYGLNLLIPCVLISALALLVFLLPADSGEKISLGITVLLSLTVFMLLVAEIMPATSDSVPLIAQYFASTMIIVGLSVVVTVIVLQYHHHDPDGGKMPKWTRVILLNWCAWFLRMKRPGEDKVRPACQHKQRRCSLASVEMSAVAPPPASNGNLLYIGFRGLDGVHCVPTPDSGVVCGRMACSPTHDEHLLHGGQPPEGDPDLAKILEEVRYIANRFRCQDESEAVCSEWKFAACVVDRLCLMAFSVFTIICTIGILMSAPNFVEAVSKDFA

[3] = geometric mean, cited from earlier work
[4] = test system: Parkinson's disease patients; details: cited from earlier work
[5] = AQW051 single-dose cohort pharmacokinetics (Feuerbach et al, phase I); format: in vivo, human
From the text: (§10) We thus set out to use summary cohort-level pharmacokinetic (PK) statistics for AQW051 (Feuerbach et al, ibid) and our own unpublished results for AZD0328 (A Phase I, Single-Centre, Randomized, Double-Blind, Placebo-Controlled, Parallel Group Study to Assess the Safety, Tolerability and Pharmacokinetics of AZD0328 in Healthy Volunteers after Oral Single Ascending Doses, Study Code D0190C00005, Ed. 1, 8 Apr. 2008) to establish a safe an efficacious dose range and regime for AZD0328 in Parkinson's disease patients.
as §2, §9

[6] = test system: rats; details: oral administration (WO2008/115139); cited from earlier work
[7] = test system: Rhesus monkeys; test: spatial working memory in Rhesus monkeys; format: in vivo, Rhesus monkey
Method: (§11) In Rhesus monkeys, spatial working memory was enhanced by doses of AZD0328 above 0.001 mg/kg (plasma compound levels of ca 0.2 times the whole cell current IC50).

[8] = target: T1, α7 nAChR; test: α7 nAChR binding (inhibition of radioligand binding)
From the text: (§12) AZD0328 is ca 20-fold selective to the α1β1γδ nAChR, and 1000-fold selective to other nicotinic receptors and a panel of other targets (as determined by inhibition of radioligand binding).

[9] = Phase I oral single ascending dose study of AZD0328 in healthy volunteers (safety, tolerability, pharmacokinetics); format: in vivo, human
From the text: as §10, §2
Capsules used in the study on which the modelling described above was performed were made by blending AZD0328 tartrate (monotartrate/monohydrate form) with mannitol, povidone and sodium starch glycolate (see Table 5). The blend was the subjected to wet granulation with water as the granulation fluid, then dried before blending with sodium stearyl fumarate. The resultant composition was filled into size 4 hard gelatin capsules (containing gelatin (Ph Eur), titanium dioxide (Ph Eur), and iron oxide black, red and yellow (E172). In embodiments, the compositions for use are capsules according to Table 5.

[10] = target: α1β1γδ nAChR (Homo sapiens, UniProt P02708+P07510+Q07001); test: selectivity by inhibition of radioligand binding, α1β1γδ nAChR; details: relative to α7 nAChR
Sequence of α1β1γδ nAChR (P02708 21-457): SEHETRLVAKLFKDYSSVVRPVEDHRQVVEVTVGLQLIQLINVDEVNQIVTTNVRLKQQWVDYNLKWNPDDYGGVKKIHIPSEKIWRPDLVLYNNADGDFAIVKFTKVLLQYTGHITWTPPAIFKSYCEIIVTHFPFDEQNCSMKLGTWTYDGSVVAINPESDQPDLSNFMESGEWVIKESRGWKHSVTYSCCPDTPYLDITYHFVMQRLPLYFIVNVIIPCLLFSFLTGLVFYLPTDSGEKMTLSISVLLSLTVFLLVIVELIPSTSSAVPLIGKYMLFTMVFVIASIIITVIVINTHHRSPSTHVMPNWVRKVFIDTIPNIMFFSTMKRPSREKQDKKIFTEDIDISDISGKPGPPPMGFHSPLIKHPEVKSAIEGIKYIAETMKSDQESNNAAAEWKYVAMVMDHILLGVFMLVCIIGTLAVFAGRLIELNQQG
Sequence of α1β1γδ nAChR (P11230 24-501 partner): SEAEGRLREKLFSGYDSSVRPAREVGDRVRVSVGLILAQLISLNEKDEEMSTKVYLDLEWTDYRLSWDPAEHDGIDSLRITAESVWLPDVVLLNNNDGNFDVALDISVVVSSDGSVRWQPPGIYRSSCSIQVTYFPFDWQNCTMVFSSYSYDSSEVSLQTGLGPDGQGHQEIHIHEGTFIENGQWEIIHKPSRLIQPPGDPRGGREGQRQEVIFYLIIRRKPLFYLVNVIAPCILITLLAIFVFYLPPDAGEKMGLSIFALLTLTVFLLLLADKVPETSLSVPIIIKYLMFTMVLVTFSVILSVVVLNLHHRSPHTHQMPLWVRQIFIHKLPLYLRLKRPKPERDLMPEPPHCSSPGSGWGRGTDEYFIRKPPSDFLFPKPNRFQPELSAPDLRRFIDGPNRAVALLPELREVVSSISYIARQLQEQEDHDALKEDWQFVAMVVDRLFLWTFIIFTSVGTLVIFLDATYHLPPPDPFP
Sequence of α1β1γδ nAChR (P07510 23-517): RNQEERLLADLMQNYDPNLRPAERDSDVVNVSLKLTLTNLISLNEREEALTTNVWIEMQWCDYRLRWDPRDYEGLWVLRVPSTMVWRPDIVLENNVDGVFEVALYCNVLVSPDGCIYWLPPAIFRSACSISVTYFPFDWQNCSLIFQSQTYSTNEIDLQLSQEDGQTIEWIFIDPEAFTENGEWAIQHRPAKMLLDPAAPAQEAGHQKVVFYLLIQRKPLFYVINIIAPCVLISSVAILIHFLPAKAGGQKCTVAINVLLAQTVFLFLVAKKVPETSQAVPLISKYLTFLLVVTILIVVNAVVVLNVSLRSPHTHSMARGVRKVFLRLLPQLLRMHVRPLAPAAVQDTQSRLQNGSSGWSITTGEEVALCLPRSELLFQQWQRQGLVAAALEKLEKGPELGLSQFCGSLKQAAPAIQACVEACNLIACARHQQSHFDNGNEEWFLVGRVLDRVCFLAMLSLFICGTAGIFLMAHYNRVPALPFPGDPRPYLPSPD
Sequence of α1β1γδ nAChR (Q07001 22-517): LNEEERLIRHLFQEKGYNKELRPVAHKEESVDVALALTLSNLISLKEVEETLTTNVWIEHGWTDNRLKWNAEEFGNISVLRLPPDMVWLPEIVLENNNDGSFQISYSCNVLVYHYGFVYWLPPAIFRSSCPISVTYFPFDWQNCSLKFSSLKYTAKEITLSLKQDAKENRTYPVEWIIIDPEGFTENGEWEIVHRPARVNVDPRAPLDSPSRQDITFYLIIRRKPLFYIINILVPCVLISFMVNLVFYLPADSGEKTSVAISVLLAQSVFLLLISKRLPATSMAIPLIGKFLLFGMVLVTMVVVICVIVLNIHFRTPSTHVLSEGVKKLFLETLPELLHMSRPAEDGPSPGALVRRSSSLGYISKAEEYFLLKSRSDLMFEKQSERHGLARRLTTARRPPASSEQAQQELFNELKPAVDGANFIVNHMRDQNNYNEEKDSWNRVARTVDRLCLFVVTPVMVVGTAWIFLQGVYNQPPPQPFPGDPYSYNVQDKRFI
From the text: as §12

[11] = target: T1, α7 nAChR; test: Ki for efficacy used as threshold in PK figures; details: threshold indicated in FIGS. 3-5
[12] = test system: schizophrenia patients; test: clinical evaluation of cognition in schizophrenia patients; format: in vivo, human; details: doses up to 0.675 mg
From the text: In the case of schizophrenia, it has been widely postulated that direct-acting agonists of various cholinergic receptors including α7 nAChRs, could normalize GABAergic, glutamergic, or dopaminergic function in the dorsolateral prefrontal cortex (dIPFC), dysfunction of which has been consistently associated with cognitive deficits in this condition. […] To date, despite numerous trials, no α7 nAChR agonist has been approved for use in the treatment of schizophrenia.
as §11

[13] = test system: other nicotinic receptors and a panel of other targets; test: selectivity by inhibition of radioligand binding, other nicotinic receptors and panel; details: relative to α7 nAChR
From the text: as §12

[14] = single compartment oral dosing PK model for AZD0328; design: species or system human; details: model parameter estimate
From the text: as §1, §2, §3, §4, §5, §6, §7, §8

[15] = target: T1, α7 nAChR; test: activation of whole cell current at α7 nAChR; format: cell-based
[16] = healthy volunteers, oral single dose 0.025 mg, cohort geometric mean
[17] = healthy volunteers, oral single dose 0.075 mg, cohort geometric mean
[18] = healthy volunteers, oral single dose 0.23 mg, cohort geometric mean
[19] = healthy volunteers, oral single dose 0.68 mg, cohort geometric mean
[20] = healthy volunteers, oral single dose 1.35 mg, cohort geometric mean
[21] = healthy volunteers, oral single dose 2 mg, cohort geometric mean

Cc1ccc(-c2ccc(OC3CN4CCC3CC4)cn2)cc1 (stereo not drawn) [AQW051]
K (equation 7 and 8) [1]: 0.88 ng/mL/mg | ka (absorption time constant) [1]: 0.40 h⁻¹ | ke (elimination time constant) [1]: 0.033 h⁻¹ | EC50 [2]: 40 nM | Cmax ([3]; Cohort 1, single dose 0.5 mg): 0.266 ng/mL | tmax ([3]; Cohort 1, single dose 0.5 mg): 8 h | Cmax ([3]; Cohort 2, single dose 2.5 mg): 1.20 ng/mL | tmax ([3]; Cohort 2, single dose 2.5 mg): 8 h | Cmax ([3]; Cohort 3, single dose 7.5 mg): 4.34 ng/mL | t1/2 ([3]; Cohort 3, single dose 7.5 mg): 22.0 h | tmax ([3]; Cohort 3, single dose 7.5 mg): 7.98 h | Cmax ([3]; Cohort 4, single dose 25 mg): 20.6 ng/mL | t1/2 ([3]; Cohort 4, single dose 25 mg): 22.7 h | tmax ([3]; Cohort 4, single dose 25 mg): 8 h | Cmax ([3]; Cohort 5, single dose 75 mg): 47.0 ng/mL | t1/2 ([3]; Cohort 5, single dose 75 mg): 18.8 h | tmax ([3]; Cohort 5, single dose 75 mg): 4.04 h | Cmax ([3]; Cohort 6, single dose 200 mg): 162 ng/mL | t1/2 ([3]; Cohort 6, single dose 200 mg): 20.0 h | tmax ([3]; Cohort 6, single dose 200 mg): 4.77 h | effect size, improvement in MCI ([4]; PD patients, 10 mg once daily, P=0.073): 0.4 | increase in cognitive function ([4]; PD patients, 10 mg): not significantly different from the control group | effect size, improvement in MCI ([4]; PD patients, 50 mg once daily, P=0.024): 0.5 | improvement in cognitive function ([4]; PD patients, 50 mg): significantly different from the placebo cohort | cognitive function ([4]; Trenkwalder et al 2016 study): improvements in cognitive function can be realised | Cmax/Dose ([5]; Cohort 1, single dose 0.5 mg): 0.53 ng/mL/mg | Cmax/Dose ([5]; Cohort 2, single dose 2.5 mg): 0.48 ng/mL/mg | Cmax/Dose ([5]; Cohort 3, single dose 7.5 mg): 0.58 ng/mL/mg | Cmax/Dose ([5]; Cohort 4, single dose 25 mg): 0.82 ng/mL/mg | Cmax/Dose ([5]; Cohort 5, single dose 75 mg): 0.63 ng/mL/mg | Cmax/Dose ([5]; Cohort 6, single dose 200 mg): 0.81 ng/mL/mg | Cmax/Dose ([5]; mean over cohorts): 0.64 ng/mL/mg | t1/2 ([5]; mean over cohorts): 20.9 h | tmax ([5]; mean over cohorts): 6.80 h

c1cnc2c(c1)C[C@@]1(CN3CCC1CC3)O2 [AZD0328, (3R)-spiro[1-azabicyclo[2.2.2]octane-3,2′(3′H)-furo[2,3-b]pyridine]
long-term potentiation [6]: significantly improve | operant conditioning [6]: significantly improve | doses enhancing spatial working memory [7]: above 0.001 mg/kg | IC50 [8]: 3 nM | adverse effects ([9]; clinical studies, single dose 0.68 mg): adverse effects, especially, nausea become apparent | prevalence of adverse events ([9]; clinical studies, single doses from 0.25 mg to 0.50 mg): markedly reduced | Cmax [9, 16]: 0.63 nM | t1/2 [9, 16]: 6.25 h | Cmax [9, 17]: 2.08 nM | t1/2 [9, 17]: 5.94 h | Cmax [9, 18]: 6.37 nM | t1/2 [9, 18]: 6.69 h | Cmax [9, 19]: 15 nM | t1/2 [9, 19]: 5.98 h | Cmax [9, 20]: 31 nM | t1/2 [9, 20]: 6.87 h | Cmax [9, 21]: 43.9 nM | tmax [9, 21]: 2.45 h | half-life ([9]; human, plasma, oral, mean over cohorts): 1.81 h | tmax ([9]; human, plasma, oral, mean over cohorts, read-out: tmax): 6.21 h | tmax ([9]; human, plasma, healthy volunteers, oral single dose 0.025 mg, cohort geometric mean, read-out: tmax): 1.44 h | tmax ([9]; human, plasma, healthy volunteers, oral single dose 0.075 mg, cohort geometric mean, read-out: tmax): 1.59 h | tmax ([9]; human, plasma, healthy volunteers, oral single dose 0.23 mg, cohort geometric mean, read-out: tmax): 1.38 h | tmax ([9]; human, plasma, healthy volunteers, oral single dose 0.68 mg, cohort geometric mean, read-out: tmax): 2.08 h | tmax ([9]; human, plasma, healthy volunteers, oral single dose 1.35 mg, cohort geometric mean, read-out: tmax): 2.95 h | Cmax/Dose ([9]; mean over cohorts): 24.6 nM/mg | Cmax/Dose ([9]; oral single dose 0.025 mg): 25.2 nM/mg | Cmax/Dose ([9]; oral single dose 0.075 mg): 27.7 nM/mg | Cmax/Dose ([9]; oral single dose 0.23 mg): 27.7 nM/mg | Cmax/Dose ([9]; oral single dose 0.68 mg): 22.1 nM/mg | Cmax/Dose ([9]; oral single dose 1.35 mg): 22.9 nM/mg | Cmax/Dose ([9]; oral single dose 2 mg): 21.94 nM/mg | selectivity to the α1β1γδ nAChR [10]: ~20 fold | Ki [11]: 5 nM | improvement in cognition [12]: did not show a statistically significant improvement in cognition | selectivity to other nicotinic receptors and a panel of other targets [13]: 1000 fold | K (equation 7 and 8) [14]: 32.4 nm/mg | ka (absorption time constant) [14]: 1.57 h⁻¹ | ke (elimination time constant) [14]: 0.11 h⁻¹ | EC50 ([15]; read-out: activation of whole cell current IC50): 2900 nM | Emax ([15]; read-out: intrinsic activity compared with acetylcholine): 101%
